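These data come from cells grown in 96-well plates and exposed to compound for 48 hours at five concentrations. At the TGI there is no net growth.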 *1 amine or outer side, *2 acyl side, *3 side chain or, on linkers, in order; H or OH if unused. Where a SMILES comes first, the peptide text is derived from it. Bridges are numbered along the chain shown (N, C = ends). [ ]: non-standard residue; d: D form. The star is where a group is joined. X34 = O=C(C(CCCCNO[*:3])N[*:1])[*:2]; Fmoc = O=C(OCC1c2ccccc2-c2ccccc21)*
What was measured:
Assay in all cases: NCI anticancer screen, dose series, 48 h
PC-3 prostate = tested on: PC-3 prostate
A549 NSCLC = tested on: A549 NSCLC
UACC-257 melanoma = tested on: UACC-257 melanoma
ACHN renal = tested on: ACHN renal
MDA-N = tested on: MDA-N
KM12 colon = tested on: KM12 colon
OVCAR-8 ovarian = tested on: OVCAR-8 ovarian
M14 melanoma = tested on: M14 melanoma
SN12C renal = tested on: SN12C renal
NCI/ADR-RES ovarian = tested on: NCI/ADR-RES ovarian
LOX IMVI melanoma = tested on: LOX IMVI melanoma
IGROV1 ovarian = tested on: IGROV1 ovarian
T-47D breast = tested on: T-47D breast
HCC-2998 colon = tested on: HCC-2998 colon
SK-MEL-5 melanoma = tested on: SK-MEL-5 melanoma
MDA-MB-435 = tested on: MDA-MB-435
SNB-75 CNS = tested on: SNB-75 CNS
RXF 393 renal = tested on: RXF 393 renal

Compound	TGI (PC-3 prostate)	TGI (A549 NSCLC)	TGI (UACC-257 melanoma)	TGI (ACHN renal)	TGI (MDA-N)	TGI (KM12 colon)	TGI (OVCAR-8 ovarian)	TGI (M14 melanoma)	TGI (SN12C renal)	TGI (NCI/ADR-RES ovarian)	TGI (LOX IMVI melanoma)	TGI (IGROV1 ovarian)	TGI (T-47D breast)	TGI (HCC-2998 colon)	TGI (SK-MEL-5 melanoma)	TGI (MDA-MB-435)	TGI (SNB-75 CNS)	TGI (RXF 393 renal)
O=C(NNC(=S)NCc1ccccc1)c1csc(NC(=S)NC2CCCCC2)n1	> 100 µM	> 100 µM	43 µM	> 100 µM	73.2 µM	> 100 µM	> 100 µM	> 100 µM	95.7 µM	96.4 µM	> 100 µM	> 100 µM	95.4 µM	> 100 µM	28.2 µM	82.9 µM		
CC(C)(C)OC(=O)NCCCC(=O)NC1(c2cc3ccccc3s2)CCCCC1		> 100 µM	31.9 µM	41 µM	34.2 µM	38.9 µM	48.3 µM	40.1 µM	35.9 µM	70 µM	29.6 µM	46.2 µM	> 100 µM	48.5 µM	19.9 µM	33.1 µM	27.7 µM	44.1 µM
CN(C)c1nncc2n[nH]nc12	> 100 µM	> 100 µM	> 100 µM	> 100 µM	> 100 µM	> 100 µM	> 100 µM	> 100 µM	> 100 µM	> 100 µM	> 100 µM	> 100 µM	> 100 µM	> 100 µM	> 100 µM	> 100 µM	> 100 µM	
OC(c1ccc2c(c1)OCO2)c1ccc2c(c1)OCO2	> 100 µM	> 100 µM	> 100 µM	> 100 µM	> 100 µM	> 100 µM	> 100 µM	> 100 µM	> 100 µM	> 100 µM	> 100 µM	> 100 µM	> 100 µM	> 100 µM	> 100 µM	> 100 µM	> 100 µM	
c1ccc(C(=NCCC2CNc3ccccc32)c2ccccc2)cc1 (centres undefined)	> 100 µM	> 100 µM	> 100 µM	> 100 µM	> 100 µM	> 100 µM	> 100 µM	> 100 µM		> 100 µM		> 100 µM		> 100 µM	> 100 µM	> 100 µM		> 100 µM
O=c1cc(N=Nc2ccc(Cl)c(Cl)c2)[nH]c(=O)[nH]1	13.6 µM	42.3 µM	6.15 µM	2.98 µM	3.36 µM	6.15 µM	4.89 µM	4.08 µM	4.79 µM	3.93 µM	3.36 µM	4.31 µM		6.35 µM	10.2 µM	17.6 µM	22.5 µM	3.17 µM
O=C1NNC2NC(=O)C3(NN2C1=O)c1ccccc1-c1ccccc13 (centres undefined)	> 100 µM	> 100 µM	> 100 µM	> 100 µM	> 100 µM		> 100 µM	> 100 µM	> 100 µM	> 100 µM	> 100 µM	> 100 µM		> 100 µM	> 100 µM	> 100 µM	> 100 µM	> 100 µM
COC(=O)C1Cc2ccc3c(c2C1=O)CCCC3 (centres undefined)	> 100 µM	> 100 µM	> 100 µM	> 100 µM	> 100 µM	> 100 µM	> 100 µM	> 100 µM	> 100 µM	> 100 µM	> 100 µM	> 100 µM	> 100 µM	> 100 µM	> 100 µM	> 100 µM	> 100 µM	
COC1(OC)C=CC2C1C1C=CC2C1(OC)OC (centres undefined)	> 100 µM	> 100 µM	> 100 µM	> 100 µM		> 100 µM	> 100 µM	> 100 µM	> 100 µM	> 100 µM	> 100 µM	> 100 µM	> 100 µM	> 100 µM	> 100 µM	> 100 µM	> 100 µM	> 100 µM
N#CC(C#N)N=Nc1ccc(-c2nc3ccccc3o2)cc1	29.2 µM	47.6 µM	17.8 µM	41.6 µM	45.2 µM	50.5 µM	> 100 µM	31.2 µM	30.5 µM	62.9 µM	29 µM	93.2 µM	25.2 µM	14.7 µM	5.56 µM	52.9 µM	66.5 µM	
COc1cc2c(cc1OC)CC1c3cc(OC)c(OC)cc3CCN1CC2 (centres undefined)	> 100 µM	> 100 µM	> 100 µM	> 100 µM		> 100 µM	> 100 µM	> 100 µM	> 100 µM	> 100 µM		> 100 µM	> 100 µM	> 100 µM	> 100 µM	> 100 µM	> 100 µM	> 100 µM
CSC1=NNC(SC)=NN1	0.303 µM	0.406 µM	0.258 µM	0.304 µM	0.319 µM	0.376 µM	0.812 µM	0.335 µM	0.322 µM	> 1 µM	0.287 µM	0.302 µM	0.33 µM	> 1 µM	0.354 µM	0.321 µM		
O=S(=O)(SC1=NCCN1)c1cccc2ccccc12	> 100 µM	67.8 µM	> 100 µM	70.5 µM	39.4 µM	45.1 µM	> 100 µM	> 100 µM	48.1 µM	> 100 µM	> 100 µM	89.9 µM		> 10 µM	43 µM	> 100 µM	46 µM	71.8 µM
CCOc1ccccc1-c1nc2c(s1)C(=O)c1ccccc1C2=O	29.6 µM	36.9 µM	27.3 µM	29.2 µM	6.5 µM	29.8 µM		36.7 µM	> 100 µM		16.7 µM	27.7 µM	63.9 µM	29.5 µM	18.7 µM	4.31 µM	25.6 µM	31.5 µM
O=c1c(-c2ccccc2F)coc2cc(F)ccc12	> 100 µM	> 100 µM	> 100 µM	> 100 µM	> 100 µM	> 100 µM	> 100 µM	> 100 µM	> 100 µM		> 100 µM	> 100 µM	> 100 µM		> 100 µM	> 100 µM	96.4 µM	> 100 µM
CC(=O)O[C@@]12CO[C@@H]1C[C@@H](O)[C@@]1(C)C(=O)[C@H](O)C3=C(C)[C@@H](OC(=O)[C@H](O)[C@@H](NC(=O)c4ccccc4)c4ccccc4)C[C@@](O)([C@@H](OC(=O)c4ccccc4)C12)C3(C)C (some centres undefined)	> 100 µM	> 100 µM	> 100 µM	57 µM			> 100 µM	> 100 µM	> 100 µM	74.4 µM	41.9 µM	> 100 µM	> 100 µM	0.0705 µM			0.0815 µM	35.4 µM
COc1nc2c(c(=O)n1C)N=C(c1ccccc1)[C@H](C(CC(=O)c1ccccc1)c1ccccc1)C(c1ccccc1)N2 (some centres undefined)	> 100 µM	> 100 µM	> 100 µM	> 100 µM	> 100 µM	> 100 µM	> 100 µM	> 100 µM	> 100 µM	> 100 µM	> 100 µM	> 100 µM		> 100 µM	> 100 µM	> 100 µM	44.5 µM	> 100 µM
CCOC(OCC)N1C(=O)C2(C(OCC)OCC)CC3C(OC(=O)N3N)c3cccc1c32 (centres undefined)		> 100 µM	> 100 µM	> 100 µM	> 100 µM	> 100 µM	> 100 µM		> 100 µM	> 100 µM	> 100 µM	> 100 µM	> 100 µM	> 100 µM	> 100 µM	> 100 µM		> 100 µM
CC(=O)OCC(C)(COC(C)=O)N1C(=O)C2C3c4ccccc4C(c4ccccc43)C2C1=O (centres undefined)	> 100 µM	> 100 µM	> 100 µM	> 100 µM	> 100 µM	> 100 µM	> 100 µM	> 100 µM			> 100 µM	> 100 µM	> 100 µM		> 100 µM	> 100 µM	> 100 µM	> 100 µM
Nc1ccc(C23CC4CC(C2)CC(c2ccc(N)cc2)(C4)C3)cc1		> 100 µM	> 100 µM	> 100 µM	> 100 µM	> 100 µM	> 100 µM	85.5 µM	59.5 µM	> 100 µM	> 100 µM	> 100 µM		78.6 µM	26.9 µM	> 100 µM		
C=C1C(=O)OC2C3C(=C)[C@@H](OC(C)=O)CC3C(C)=CC(OC(=O)C(C)(OC(C)=O)C(C)OC(C)=O)[C@@H]12 (some centres undefined)	32.4 µM	70.4 µM	32.1 µM	27 µM	30.1 µM	33.4 µM	> 100 µM	27.8 µM	29.5 µM		27.3 µM	37.7 µM	40.5 µM	33.2 µM	25.3 µM	31.2 µM	37.1 µM	31.7 µM
Cc1ccc(OCC2OC(n3cnc4c(Cl)nc(Cl)nc43)CC2Oc2ccc(C)cc2)cc1 (centres undefined)	6.57 µM	11.9 µM	6.59 µM	2.66 µM	3.84 µM	3.09 µM	5.39 µM	3.99 µM	17.9 µM	4.37 µM	3.61 µM	4.48 µM	4.53 µM	30.8 µM	19.2 µM	5.48 µM	5.39 µM	
CCOC(=O)c1c(C)n(C)c2c1cc(O)c1[nH]c3c(c12)CCCC3	46.6 µM	58.7 µM	31.7 µM	> 100 µM	34.3 µM	37.3 µM	66.3 µM	29.2 µM	61.3 µM	54 µM	29.7 µM	37.2 µM	48.4 µM		25.6 µM	29.6 µM		
CC(C)Oc1cccc(N2C(=NCCc3c[nH]c4ccccc34)Nc3ccncc3S2(=O)=O)c1	> 100 µM	> 100 µM	> 100 µM	> 100 µM		> 100 µM	> 100 µM	> 100 µM	> 100 µM	> 100 µM	> 100 µM	> 100 µM	> 100 µM	> 100 µM	> 100 µM	> 100 µM	> 100 µM	44.9 µM
CC(=O)OC[C@@]12Cc3ccc(C)c(O)c3[C@]1(C)[C@@H](OC(C)=O)[C@]1(O)[C@H]([C@@H](OC(=O)c3ccccc3)[C@@H](C)[C@H]1OC(C)=O)[C@H]2OC(C)=O	> 50 µM		> 50 µM	> 50 µM		> 50 µM	> 50 µM	> 50 µM	> 50 µM	> 50 µM	> 50 µM	> 50 µM	> 50 µM	> 50 µM	> 50 µM	> 50 µM	> 50 µM	> 50 µM
CC(=O)n1cc(OP(=O)(Oc2ccccc2)Oc2ccccc2)c2ccccc21	31 µM	> 100 µM	77.2 µM		> 100 µM	> 100 µM	> 100 µM	52.1 µM	> 100 µM	44.3 µM	62.1 µM	> 100 µM	80.2 µM		40.9 µM	50.3 µM		
NC(=O)CNC(=O)C1CCCN1C(=O)C1CCCCNOC(=O)CCC(NC(=O)OCC2c3ccccc3-c3ccccc32)C(=O)NC(Cc2c[nH]c3ccccc23)C(=O)N1 (centres undefined) (Fmoc-EW[X34]PG-NH2; ester 1-3; configuration not given here)	> 100 µM	> 100 µM	> 100 µM	> 100 µM		> 100 µM	> 100 µM	> 100 µM	> 100 µM	> 100 µM	> 100 µM	> 100 µM	> 100 µM	> 100 µM	> 100 µM	> 100 µM	> 100 µM	> 100 µM

— PubChem BioAssay (NCI)
